Reference: US20060014644A1, “Phenylsulfonyl ureas, process for their preparation and their use as herbicides and plant growth regulators” (Hoechst Schering AgrEvo GmbH, priority 1999, published 2006)

Columns and labels:
[1] = test system: harmful plants such as Sinapis alba, Chrysanthemum segetum, Avena sativa, Stellaria media, Echinochloa crus-galli, Lolium multiflorum, Setaria spp., Abutilon …; assay: Pre-emergence effect on weeds (greenhouse pot test, visual scoring); format: in vivo, monocotyledonous and dicotyledonous weed plants; settings: application rate of 0.3 kg and less of active substance per hectar, scored visually after 3 to 4 weeks by comparison with untreated controls
Description: 1. Pre-Emergence Effect on Weeds
Seeds or rhizome pieces of monocotyledonous and dicotyledonous weed plants were placed in sandy loam soil in cardboard pots and covered with soil. The compounds according to the invention which were formulated in the form of wettable powders or emulsion concentrates were then applied to the surface of the soil cover in the form of aqueous suspensions or emulsions at an application rate of 600 to 800 l of water/ha (converted), in various dosages.
After the treatment, the pots were placed in a greenhouse and kept under good growth conditions for the weeds. After the test plants had emerged, the damage to the plants or the negative effect on the emergence was scored visually after a test period of 3 to 4 weeks by comparison with untreated controls. As shown by the test results, compounds according to the invention have good herbicidal pre-emergence activity against a broad spectrum of weed grasses and broad-leafed weeds.

[2] = test system: harmful plants such as Sinapis alba, Echinochloa crus-galli, Lolium multiflorum, Chrysanthemum segetum, Setaria spp., Abutilon theophrasti, Amaranthus …; assay: Post-emergence effect on weeds (greenhouse pot test, visual scoring); format: in vivo, monocotyledonous and dicotyledonous weeds; settings: three-leaf stage, application rate of 0.3 kg and less of active substance per hectare, scored visually after about 3 to 4 weeks by comparison with untreated controls
Description: 2. Post-Emergence Effect on Weeds
Seeds or rhizome pieces of monocotyledonous and dicotyledonous weeds were placed in sandy loam soil in plastic pots, covered with soil and grown in a greenhouse under good growth conditions. Three weeks after sowing, the test plants were treated at the three-leaf stage. The compounds according to the invention which were formulated as wettable powders or emulsion concentrates were sprayed, at various dosages, onto the green parts of the plants at an application rate of 600 to 800 l of water/ha (converted). After the test plants had remained in the greenhouse for about 3 to 4 weeks under ideal growth conditions, the effect of the preparations was scored visually by comparison with untreated controls. The agents according to the invention also have good herbicidal activity post-emergence against a broad spectrum of economically important Weed grasses and broad-loafed weeds.

SMILES | herbicidal activity against harmful plants, pre-emergence [1] | herbicidal activity against harmful plants, post-emergence [2]
COC(=O)c1c(NC2CC2)cccc1S(=O)(=O)NC(=O)Nc1nc(OC)cc(OC)n1 [Example 1-353] | very good herbicidal activity | very good herbicidal activity
COC(=O)c1c(NC2CC2)cccc1S(=O)(=O)NC(=O)Nc1nc(C)nc(OC)n1 [Example 1-355] | very good herbicidal activity | very good herbicidal activity
COC(=O)c1c(NC2CC2)cccc1S(=O)(=O)NC(=O)Nc1nc(OC)nc(OC)n1 [Example 1-359] | very good herbicidal activity | very good herbicidal activity
COC(=O)c1c(NCc2ccccc2)cccc1S(=O)(=O)NC(=O)Nc1nc(OC)cc(OC)n1 [Example 1-381] | very good herbicidal activity | very good herbicidal activity
COC(=O)c1c(NCc2ccccc2)cccc1S(=O)(=O)NC(=O)Nc1nc(C)nc(OC)n1 [Example 1-383] | very good herbicidal activity | very good herbicidal activity
COC(=O)c1c(NCc2ccccc2)cccc1S(=O)(=O)NC(=O)Nc1nc(OC)nc(OC)n1 [Example 1-387] | very good herbicidal activity | very good herbicidal activity
COC(=O)c1c(N(C)C)cccc1S(=O)(=O)NC(=O)Nc1nc(OC)cc(OC)n1 [Example 1-401] | very good herbicidal activity | very good herbicidal activity
CCN(CC)c1cccc(S(=O)(=O)NC(=O)Nc2nc(OC)cc(OC)n2)c1C(=O)OC [Example 1-417] | very good herbicidal activity | very good herbicidal activity
COC(=O)c1c(N(CC(C)C)CC(C)C)cccc1S(=O)(=O)NC(=O)Nc1nc(OC)cc(OC)n1 [Example 1-425] | very good herbicidal activity | very good herbicidal activity
COC(=O)c1c(N(CC(C)C)CC(C)C)cccc1S(=O)(=O)[N-]C(=O)Nc1nc(OC)cc(OC)n1.[Na+] [Example 1-426] | very good herbicidal activity | very good herbicidal activity
